According to patent US20250152488A1, “SKIN BRIGHTENING COMPOSITION” (Conopco, Inc., d/b/a UNILEVER, priority 2022, published 2025):

What follows are compounds tested on Human primary melanocytes (assay: Melanin synthesis on melanocyte cells in vitro (melanin content assay)). Settings: 72 hrs treatment with actives in MGM media at the stated wt %; absorbance 405 nm.
Type: cell-based
Protocol: Experiments were carried out on melanocyte cells using the actives as shown in Table-3 using the procedure given below; • 1. Human primary melanocytes were seeded at a density of 5×10^4 per well into a 24 well plate with fresh melanocyte growth media (MGM). • 2. Post 24 hrs seeding, cells were treated with actives in fresh MGM media and incubated for 72 hrs at 5% CO2/37° C. incubator. • 3. After 72 h of incubation, melanin estimation was done. Melanin content estimation: Cell culture spent media was removed and cells were washed once with 200 μl of 1×PBS. […] Then 100 μl of this lysate was transferred to a fresh 384 well plate and absorbance was measured spectrophotometric at 405 nm with a micro plate reader.
With CC(O)CN(CCN(CC(C)O)CC(C)O)CC(C)O (stereo not drawn) [D, tetrahydroxypropyl ethylenediamine] the “Melanin synthesis (% of control)” value was 91 % of control.
NC(=O)c1cccnc1 [E, niacinamide] was tested, and the “Melanin synthesis (% of control)” value was 97 % of control.
In the case of CCCCCCC(O)CCCCCCCCCCC(=O)O (stereo not drawn) [F, 12-hydroxystearic acid], the “Melanin synthesis (% of control)” value is reported as 98 % of control.
